Experimental data taken from USRE47761E1, “Anti-axl antibodies and methods of use” (Genentech, Inc., priority 2010, dated 2019).
Entries after “also recorded” stand apart in the source; their conditions may differ.

What was measured:
[1] = system: A549 xenograft; conditions: for reduction in tumor growth as a single agent: A549, FIG. 9A, erlotinib 100 mg/kg/day oral gavage
Description: (§1) Mice were removed from the study when their tumor size reached 800 mm^3, and the animals remaining in each group (% remaining) were plotted. C. […] 12A11 and anti-VEGF was administrated IP at 30 mg/kg and 1 mg/kg, respectively, twice a week, starting when the mean tumor size reached 100 mm^3 (day 0). […] Cell lysates from tumors were analyzed by Western blot for Axl expression. […] Tumors from mice treated as above in D were excised at 0 and 72 hr post dosing and tumor vasculature was visualized by staining with MECA32 immunohistochemistry and quantified by image analysis (expressed as microns square).
All studies were conducted in accordance with the “Guide for the Care and Use of Laboratory Animals” (NIH), and approved by the Institutional Animal Care and Used Committee (IACUC). A total of 5×10^6 (A549) or 10^7 cells in matrigel (MDA-MB-231) were implanted subcutaneously into right flank of nude (A549) or SCID mice (MDA-MB-231), respectively. When the average tumor sized reached 100 mm^3, mice were randomized and divided into different treatment groups (n=10 for each group). Anti-Axl or control IgG1 antibodies were at administrated at 10-30 mg/kg, anti-VEGF at 1-2 mg/kg, via intraperitoneal injection (IP), twice weekly. Erlotinib was administrated by oral gavage at 100 mg/kg/day. Paclitaxel and carboplatin were administrated subcutaneously at 6.25 mg/kg/day for 5 days, and 100 mg/kg for a single dose, respectively, at the beginning of the treatment. Statistic analyses were performed using Anova two-way for comparison of tumor growth in different treatment groups.

[2] = system: MDA-MB-231 breast cancer cells; experiment: MDA-MB-231 metastasis after tail vein injection (bioluminescence); type: in vivo, SCID mice
Description: A. Bioluminescence imaging 4 weeks after tail vein injection of tumor cells. Mice were injected intraperitoneally (i.p.) with 200 μL of 25 mg/ml D-luciferin (Invitrogen) in PBS and were anesthetized during imaging using isoflurane via nose cone. Bioluminescence images were acquired on the Photon Imager (Biospace Lab, Paris, France) that has an intensified charge-coupled device camera. B. H & E staining of the tibia sections.
For metastasis studies, 5×10^5 MDA-MB-231 cells stably transfected with a luciferase reporter gene (Li et al, 2009) were implanted into SCID mice via tail vein injection. Metastasis of tumor cells to various organs was monitor by bioluminescence detection as described (Li et al, 2009).

[3] = system: cynomolgus Axl; experiment: Cross reaction ELISA, cynomolgus Axl; type: binding
Description: (§2) A-B. Affinity measurement of YW327.6S2 using BIAcore. Association rates (kon) and dissociation rates (koff) were calculated using the one-to-one Langmuir binding model. The equilibrium dissociation constant (Kd) was derived as the […]. C. […] Plates were coated with anti-human IgG Fc, and then incubated with human Axl, Mer, Tyro3 Fcs, mouse or cynomolgus AxlFcs. After washing, isotype control antibody or YW327.6S2 was added and followed by HRP conjugated anti-human IgG. […] FIG. 7D: ELISA. Plates were coated with anti-human IgG Fc and incubated with human Axl-Fc. After washing, Gas6 was added with or without antibodies. Binding of Gas6 was detected by biotylated anti-Gas6 antibody and streptavidin-HRP conjugate. FIG. 7E: FACS. […] Binding of Gas6 to the cell surface was detected by biotylated anti-Gas6 antibody and streptavidin-PE conjugate. […] Phosphorylated Axl was measured by ELISA (upper panel), and phosphorylated Akt by Western Blotting analysis (lower panel). […] Cell viability was measured by CellTiter Glo assay.
ELISA assays were performed as follows: goat anti-human IgG Fc coated plates were blocking with 0.5% BSA, PBS, 0.05% Tween 20 (PBST). […] Secreted Ang-2 and DKK3 was measured using R&D ELISA kit, according to the manufacturer's instruction. Axl expression on cell surface was determined by FACS using standard techniques. […] Samples were analyzed on BD FACScalibur Flow Cytometer.

[4] = system: tumor vasculature; experiment: Intra-tumoral vascular density (MECA32) in MDA-MB-231 xenograft tumors; type: in vivo, SCID mice; conditions: MDA-MB-231 tumors
Description: (§3) Cell lysates from tumors were used in Western blot analysis for Axl expression. […] F. Axl is highly expressed in infiltrating macrophages of primary human breast cancer. Immunohistochemistry was used to examine 79 primary tumors. 21% of these tumors express high levels of Axl in the infiltrating macrophages. Macrophages were identified by staining with anti-CD68, and expression of Axl on macrophages was determined by anti-Axl/CD68 dual IHC. Serial sections were used. […] Tumor associated macrophages were isolated by sorting for F4/80 positive cells and cultured overnight. Cytokines and chemokines secreted into the medium were measured using the Bio-Plea mouse cytokine assay kit.
(§4) Tumor samples were stained with MECA32, a pan endothelial cell marker. Images were acquired by the Ariol SL-50 automated slide scanning platform (Genetix Ltd.; Hampshire, UK) at 100× final magnification. Tumor-specific areas were exported for analysis in the Metamorph software package (MDS Analytical Technologies; Ontario, Canada) as individual 8-bit images. […] Area measurements were recorded for individual vessels, as well as the tumor and non-tumor areas in each image. Raw values based on image analysis were analyzed using the JMP 8.0 software (SAS Institute, Inc. North Carolina, USA). […]

[5] = system: A549 xenograft tumors; experiment: Cleaved caspase 3 and Ki67 IHC of A549 xenograft tumors; type: in vivo, mice; conditions: A549 tumors treated two weeks, versus control
Description: B. Kaplan-Meier curve of various treatment groups. […] C. 12A11 enhances the effect of anti-VEGF.
Xenograft tumor samples were fixed in 10% neutral buffered formalin, processed, embedded in paraffin, and sectioned at 4 μm. Thin sections were then treated with primary antibodies for Ki67, cleaved caspase 3 and MECA32, followed by biotinylated secondary antibodies and the DAB chromagen.

[6] = system: MDA-MB-231 xenograft; experiment: MDA-MB-231 xenograft tumor growth; type: in vivo, SCID mice
[7] = system: tumor vasculature; experiment: Intratumoral vascular density (MECA32) in A549 xenograft tumors; type: in vivo, mice
Description: as §1
as §4, with “images. The brown DAB-specific staining was isolated from the Hematoxylin counterstain using a blue-normalization algorithm as described (Brey et al, 2003).” for “images.”

[8] = system: tumor-associated macrophages; experiment: Cytokine/chemokine secretion from tumor-associated macrophages of MDA-MB-231 xenografts; type: in vivo, mice; conditions: MDA-MB-231 tumors treated one week, 20 mg/kg, versus control antibody
Description: as §3
Tumors were dissected, chopped into small pieces and incubated in RPMI1640 medium with 2.5% FBS, 0.2 units/ml Liberase Blendzymes II and 5 units/ml DNaseI, (Roche). Tumor cells were disassociated using MACS Dissociator (Miltenyi Biotec) and maintained for 20 minutes at room temperature. EDTA (final concentration 0.002%) was added to stop the reaction. Single cell suspensions were prepared, and red blood cells were removed using RBC lysis buffer (eBioscience). […] Cultured media was collected and the levels of cytokines and chemokines were determined using Bio-Plex mouse cytokine assays (Bio-Rad) according to manufacturer's instructions.

[9] = system: Akt; experiment: Gas6-induced Akt phosphorylation in H1299 cells (Western blotting); type: cell-based, human; conditions: pre-incubated 4 hrs, Gas6 30 minutes
Description: as §2

[10] = target: T1, human Axl ECD-His protein (human, UniProt P30530 26-451); experiment: SPR (BIAcore-3000); anti-Axl human IgG captured by anti-human IgG, human Axl ECD-His injected
T1 construct: also called Hu Axl; not shown: His tag
T1 sequence (P30530 other isoform, or with tags, fused parts or gaps): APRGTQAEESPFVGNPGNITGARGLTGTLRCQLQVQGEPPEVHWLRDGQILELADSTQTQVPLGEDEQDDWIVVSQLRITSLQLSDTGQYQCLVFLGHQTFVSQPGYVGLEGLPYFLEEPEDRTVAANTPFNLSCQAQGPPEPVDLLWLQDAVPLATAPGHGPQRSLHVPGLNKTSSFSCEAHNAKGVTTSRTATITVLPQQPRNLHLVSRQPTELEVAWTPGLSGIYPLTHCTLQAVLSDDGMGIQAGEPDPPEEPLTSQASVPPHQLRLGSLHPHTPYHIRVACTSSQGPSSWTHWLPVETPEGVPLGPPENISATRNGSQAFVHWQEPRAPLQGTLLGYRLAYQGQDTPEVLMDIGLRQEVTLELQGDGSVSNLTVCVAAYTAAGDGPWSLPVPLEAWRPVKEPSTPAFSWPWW

## C#Cc1cccc(Nc2ncnc3cc(OCCOC)c(OCCOC)cc23)c1 [erlotinib, reference compound]
[1]
  reduction in tumor growth as a single agent: 30%

## YW327.6S2: Affinity matured phage-derived human anti-Axl monoclonal antibody, from clone YW327.6
[2]; four weeks after injection, control group total 18
  sites detected by bioluminescence, total for the entire group: 7
[2]; versus control antibody
  metastasis of MDA-MB-231 cells (sites detected by bioluminescence), in words: significantly reduced; also recorded: reduces
[3]
  binding to cynomolgus Axl: binds; also recorded: cross reacts
[1]
  reduction in tumor growth as a single agent: 30%
[1]; A549, YW327.6S2 10 mg/kg or anti-VEGF 1 mg/kg IP twice a week
  tumor growth inhibition by single agent: 30%
[1]; A549, co-administration with anti-VEGF
  duration of tumor stasis after treatment cessation: at least 4 weeks
[1]; A549, combination with anti-VEGF 1 mg/kg
  effect on the anti-tumor effect of anti-VEGF: enhances
[1]; A549, in combination with anti-VEGF
  tumor re-growth from last dose to day 85: no tumor re-growth
[1]; A549, in combination with anti-VEGF, day 85
  survival at end of experiment (Kaplan-Meier, tumor size 800 mm^3 cutoff): survival of all the animals
[1]; A549, in combination with anti-VEGF, dosed 60 days, followed to day 85
  delay of tumor growth compared to a single agent: significantly delayed tumor growth
[1]; mouse, in vivo
  reduction of tumor growth rate in combination with erlotinib: more than 50%
  tumor growth inhibition by the combination treatment: 60%
[4]
  intra-tumoral vascular density, single antibody versus control: significantly reduced; also recorded: reduces
  tumor associated vascular density, combination with anti-VEGF: further reduction
[5]
  Ki67 positive nuclei: no significant difference
  cleaved caspase 3 (CC3), apoptosis: increased; also recorded: induces apoptosis
[6]; 20 mg/kg IP twice a week
  reduction of tumor growth, antibody alone: 25%
[6]; 20 mg/kg with anti-VEGF 2 mg/kg
  reduction in tumor growth, combination therapy with anti-VEGF: 50%
[7]
  intratumoral vascular density, antibody alone: did not significantly reduced
  intratumoral vascular density, combination with anti-VEGF: significant decrease; also recorded: enhances the effect of anti-VEGF in reducing intra-tumoral vascular density
[8]
  inflammatory cytokines and chemokines produced by TAMs: much lower levels; also recorded: inhibits
[9]
  Gas6-induced phosphorylation of Akt: blocks

B1: YW327.6S2 (antibody, V domains shown)
VH: EVQLVESGGGLVQPGGSLRLSCAASGFSLSGSWIHWVRQAPGKGLEWVGWINPYRGYAYYADSVKGRFTISADTSKNTAYLQMNSLRAEDTAVYYCAREYSGWGGSSVGYAMDYWGQGTLV
VL: DIQMTQSPSSLSASVGDRVTITCRASQDVSTAVAWYQQKPGKAPKLLIYSASFLYSGVPSRFSGSGSGTDFTLTISSLQPEDFATYYCQQSYTTPPTFGQGTKVEIKR
[10]
  Kd: ~1 nM
